Test results: paper PMC11243058, “Identification of Novel Isatin Derivative Bearing a Nitrofuran Moiety as Potent Multi-Isoform Aldehyde Dehydrogenase Inhibitor” (Molecules, 2024)
Like-named read-outs stand apart in the source and are kept apart here.

Key:
[1] = system: HCT-116; assay: Cell viability assay (MTS), HCT-116; type: cell-based, human; conditions: Homo sapiens, HCT-116, colon cancer cells, 48 h, mean ± SD
Procedure: (§1) Five thousand cells/well were plated in 96-well plates in growth media and left for attachment for 24 h. The cells were then treated with the respective compounds using varying concentrations for 48 h. At the end of the treatment duration, a solution of MTS [3-(4,5-dimethylthiazol-2-yl)-5-(3-carboxymethoxyphenyl)-2-(4-sulfophenyl)-2H-tetrazolium] and an electron coupling reagent, PES (phenazine ethosulfate) (Promega, Madison, WI, USA) was added to the cells. Then, 15 μL of MTS reagent was added to each well, and the absorbance was assessed at 490 nm with a microplate reader (Dynex Technologies, MRX Revelation; Chantilly, VA, USA) after 1 h incubation with MTS. The data were recorded, and the IC50 value was calculated using non-linear curve regression analysis (Graph pad V8.0, CA, USA).

[2] = molecular target: T1, ALDH3A1 (Homo sapiens, UniProt P30838); assay: ALDH isoform-specific enzyme inhibition assay, ALDH3A1; type: biochemical; conditions: 500 nM, Acetaldehyde (Substrate)
T1 construct: purchased R&D systems
T1 sequence (P30838 1-453): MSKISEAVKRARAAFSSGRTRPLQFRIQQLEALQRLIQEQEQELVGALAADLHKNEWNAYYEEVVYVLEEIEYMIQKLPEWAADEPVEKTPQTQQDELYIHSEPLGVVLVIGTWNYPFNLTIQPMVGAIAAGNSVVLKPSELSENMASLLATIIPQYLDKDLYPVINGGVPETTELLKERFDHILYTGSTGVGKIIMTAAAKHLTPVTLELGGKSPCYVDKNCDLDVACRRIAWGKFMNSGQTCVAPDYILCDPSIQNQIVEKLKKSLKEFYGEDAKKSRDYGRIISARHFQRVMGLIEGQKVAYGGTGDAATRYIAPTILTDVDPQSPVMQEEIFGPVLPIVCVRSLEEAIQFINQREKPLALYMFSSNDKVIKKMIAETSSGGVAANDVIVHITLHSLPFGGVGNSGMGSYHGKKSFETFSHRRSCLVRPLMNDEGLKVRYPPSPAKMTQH
Procedure: (§2) ALDH1A1, ALDH3A1, and ALDH1A3 enzyme inhibition assays were performed as reported previously. Briefly, 500 ng/100 uL of ALDH1A1, ALDH3A1, and ALDH1A3 were treated with 500 nM concentration of the tested compounds and incubated for 15 min followed by the addition of reaction mixture (substrate + Substrate mixture). […] The absorbance was measured at 450 nm. [Absorbance Control–Absorbance treated/Absorbance Control]100 was used to compute the percentage of inhibition.

[3] = Cell viability assay (MTS), statements over the cell line panel; type: cell-based, human; conditions: human; range or statement over all tested cell lines, 48 h MTS; read-out: IC50 / cytotoxicity against the tested cell lines
Procedure: as §1

[4] = molecular target: T2, ALDH1A1 (Homo sapiens, UniProt P00352); assay: ALDH isoform-specific enzyme inhibition assay, ALDH1A1; type: biochemical; conditions: 500 nM, Acetaldehyde (Substrate)
T2 construct: purchased R&D systems
T2 sequence (P00352 1-501): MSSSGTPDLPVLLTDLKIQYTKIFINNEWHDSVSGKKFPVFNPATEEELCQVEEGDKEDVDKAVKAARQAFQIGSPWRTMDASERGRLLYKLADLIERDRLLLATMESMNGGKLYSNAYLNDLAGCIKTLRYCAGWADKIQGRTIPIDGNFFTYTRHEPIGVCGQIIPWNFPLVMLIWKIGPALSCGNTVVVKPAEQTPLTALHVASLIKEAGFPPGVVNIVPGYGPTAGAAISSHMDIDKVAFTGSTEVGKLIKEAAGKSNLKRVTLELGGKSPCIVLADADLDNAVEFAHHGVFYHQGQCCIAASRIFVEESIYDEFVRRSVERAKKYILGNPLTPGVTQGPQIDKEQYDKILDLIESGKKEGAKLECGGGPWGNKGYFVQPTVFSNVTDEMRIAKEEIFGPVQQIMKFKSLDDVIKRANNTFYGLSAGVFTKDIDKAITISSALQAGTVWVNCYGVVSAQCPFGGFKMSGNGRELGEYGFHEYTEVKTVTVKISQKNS
Procedure: as §2

[5] = system: SKOV-3; assay: Cell viability assay (MTS), SKOV-3; type: cell-based, human; conditions: Homo sapiens, SK-OV-3, ovarian cancer cells, 48 h, mean ± SD
Procedure: as §1

[6] = system: MiaPaCa-2; assay: Cell viability assay (MTS), MiaPaCa-2; type: cell-based, human; conditions: Homo sapiens, MIA PaCa-2, pancreatic cancer cells, 48 h, mean ± SD
Procedure: as §1

[7] = system: HEK-293; assay: Cell viability assay (MTS), HEK-293; type: cell-based; conditions: HEK293, human embryonic kidney cells, 48 h, mean ± SD
Procedure: as §1

[8] = system: FHC; assay: Cell viability assay (MTS), FHC; type: cell-based; conditions: FHC, normal fetal human cells, 48 h, mean ± SD
Procedure: as §1

[9] = system: SKOV-3, MiaPaCa-2, HCT-116, HEK-293, and FHC cell lines; assay: Cell viability assay (MTS), statements over the cell line panel; type: cell-based, human; conditions: for IC50: Homo sapiens
Procedure: as §1

[10] = system: HCT-116 cells; assay: Apoptosis assay, Annexin V/7-AAD; type: cell-based, human; conditions: HCT-116, 3 µM, 48 h, relative to KS100
Procedure: (§3) The apoptosis assays were carried out following the manufacturer’s instructions using the Muse Caspase-3/7 assay kit and Annexin V/7-AAD kit (Luminex Corp., TX, US). In a 6-well plate, the cells were seeded at a density of 1X105 cells/well. The cells were treated with 3 µM of the compounds following a 24 h incubation period. The cells were cultured for 48 h (Annexin V/7-AAD) as opposed to 24 h (Caspase-3/7 test). Cell Dissociation buffer, an enzyme-free solution, was used to harvest the cells at the end of the treatment period. The samples were then given the appropriate dye treatments following the manufacturer’s instructions.

[11] = system: γH2AX in HCT-116 cells; assay: Western blot for γH2AX; type: cell-based, human; conditions: HCT-116, 3 µM, 12 h
Procedure: Western blotting was performed as described previously. The antibodies used were procured from Cell Signaling Technologies. […] The protein was transferred to a 0.45 µm pore membrane (Immobilon®-P PVDF Membrane, EMD Millipore, USA). The membranes were further treated with the respective primary and secondary antibodies. The Western blot images are representative of three independent experiments.

[12] = system: UACC 903 cells; assay: ALDEFLUOR assay; type: cell-based, human; conditions: UACC 903 melanoma cells, 1 µM, 24 h
Procedure: Aldehyde dehydrogenase (ALDH) activity within human melanoma cells was assessed by utilizing the ALDEFLUOR Kit from […] Technologies. […] Post-treatment, cells were washed with PBS, and the ALDEFLUOR assay was performed following the manufacturer’s protocol, employing DEAB as a negative control. ALDH percentages were determined using a BD LSRFortessa flow cytometer (San Jose, CA, USA).

[13] = system: HCT-116 cells; assay: Apoptosis assay, Muse Caspase-3/7 7-AAD; type: cell-based, human; conditions: HCT-116, 3 µM, 24 h, relative to KS100
Procedure: as §3

[14] = system: HCT-116 cells; assay: ROS generation (Muse Oxidative Stress Kit); type: cell-based, human; conditions: HCT-116, 3 µM, 24 h, relative to KS100
Procedure: The Muse® Oxidative Stress Kit (Luminex Corp., Austin, TX, USA) was used to assess the generation of ROS in the HCT-116 cells after the treatment with the compounds. In a 6-well plate, the cells were seeded at a density of 1 × 10^5 cells/well. After 24 h incubation, the cells were treated with the respective compounds with or without 5 mM of N-acetylcysteine (NAC) in the serum-enriched medium for 24 h. At the end of the treatment duration, the cells were harvested, and 10 μL of cells in suspension was added into each tube. Furthermore, 190 μL of Muse Oxidative Stress Reagent working solution was added to each tube. The samples were mixed thoroughly by pipetting up and down or vortexing at medium speed for 3 to 5 s. The samples were incubated for 30 min at 37 °C and analyzed using Muse Cell Analyzer.

[15] = system: HNSCC xenograft; conditions: injected intratumorally ref 29; cited from earlier work

Structure (SMILES) | IC50 [1] [µM] | inhibition at 0.5 µM [2] [%] | IC50 at 48 h [3] [µM] | inhibition at 0.5 µM [4] [%] | IC50 [5] [µM] | melting point [°C] | IC50 [6] [µM] | IC50 [7] [µM] | IC50 [8] [µM] | IC50 ([9]; HEK293, FHC and HEK-293, 48 h MTS, read-out: IC50 in normal and embryonic kidney cells) [µM] | IC50 ([9]; Pancreatic cancer cell, ovarian, colon, and pancreatic cancer cells, 48 h MTS, read-out: IC50 in cancer cell lines) [µM] | greater effectiveness than KS100 in targeting cancer cells ([9]; from MTS IC50 values) [times] | more apoptotic cell population than KS100, Annexin V/7-AAD [10] | γH2AX protein levels [11] | inhibition of overall ALDH activity (ALDEFLUOR) [12] | more apoptotic cell population than KS100, caspase-3/7 7-AAD [13] | more ROS than KS100 [14] [%] | IC50 ([9]; Pancreatic cancer cell, 48 h, read-out: IC50 in cancer cell lines) [µM] | reduction of HNSCC xenograft development [15] [%]
Br.C=CCNC(=N)SCc1ccc(CN2C(=O)C(=O)c3cc(Br)cc(Br)c32)cc1 [Compound 1, 4-((5,7-Dibromo-2,3-dioxoindolin-1-yl)methyl)benzyl allylcarbamimidothioate hydrobromide] | 4.7 ± 1.1 | 30.59 ± 0.02 | 2.1 to 6.8 | 35.37 ± 0.01 | 4.8 ± 0.2 | 118 to 120 | 2.4 ± 1.1 | 4.1 ± 0.8 | 2.9 ± 0.3 |  |  |  |  |  |  |  |  |  | 
COC(=O)/C=C/c1ccc(CN2C(=O)C(=O)c3cc(Br)cc(Br)c32)cc1 [Compound 2, Methyl (E)-3-(4-((5,7-dibromo-2,3-dioxoindolin-1-yl)methyl)phenyl)acrylate] | 19.6 ± 3.3 |  | > 20 |  | 21.8 ± 2.4 |  | 22.3 ± 5.1 | 24.1 ± 6.8 | 22.9 ± 3.3 |  |  |  |  |  |  |  |  |  | 
O=C(OCc1ccc(CN2C(=O)C(=O)c3cc(Br)cc(Br)c32)cc1)c1ccc([N+](=O)[O-])o1 [Compound 3, 4-((5,7-Dibromo-2,3-dioxoindolin-1-yl)methyl)benzyl 5-nitrofuran-2-carboxylate] | 2.1 ± 0.1 | 51.87 ± 0.05 | 2.1 to 6.8 | 51.32 ± 0.01 | 2.2 ± 0.2 |  | 3.8 ± 0.4 | 8.7 ± 1.1 | 7.1 ± 0.8 | 7.1 to 8.7 | 2.1 to 3.8 | 0.5 to 2 | ~ 13% | increased γH2AX protein levels | ~ 2.5 fold | ~ 12.8% | 34.7 |  | 
Br.N=C(N)SCc1ccc(Cn2nc(Br)c3cc(C(F)(F)F)ccc32)cc1 [Compound 16, 4-((3-Bromo-5-(trifluoromethyl)-1H-indazol-1-yl)methyl)benzyl carbamimidothioate hydrobromide] | 4.9 ± 1.1 | -9.33 ± 0.04 | 2.1 to 6.8 | 9.46 ± 0.01 | 4 ± 1.3 | 213 to 215 | 6.8 ± 1.4 | 5.7 ± 1.3 | 7.1 ± 1.1 |  |  |  |  |  |  |  |  |  | 
Br.N=C(N)SCc1ccc(Cn2nc(Br)c3cccc(C(F)(F)F)c32)cc1 [Compound 17, 4-((3-Bromo-7-(trifluoromethyl)-1H-indazol-1-yl)methyl)benzyl carbamimidothioate hydrobromide] | > 50 | -25.33 ± 0.05 |  | 10.99 ± 0.0015 | > 50 | 235 to 237 | > 50 | > 50 | > 50 |  |  |  |  |  |  |  |  | > 50 | 
CC(C)CCn1c(CN2CCN(C(=O)C3CC3)CC2)nc2c1c(=O)n(C)c(=O)n2C [NCT-501] |  |  |  |  |  |  |  |  |  |  |  |  |  |  |  |  |  |  | 78
